Measured values as given in patent publication US8592423B2, “Inhibitors of PDE10” (Bristol-Myers Squibb Company, priority 2011, dated 2013).
Read-outs that look alike come from different tables or passages of the source.

Molecular target: PDE10 (Homo sapiens (Human), UniProt Q9Y233)
Experiment: LE_PDE10A inhibition assay (SPA, cAMP hydrolysis)
Type: biochemical
Conditions: 3H-cAMP at Km 25 nM
Experimental: LE_PDE10A Inhibition Assay:
The PDE10 inhibition assay in 384-well plates was conducted to identify substances for the inhibition of cyclic nucleotide hydrolysis by the PDE10 enzyme. […] PDE10 activity was measured using Scintillation Proximity Assay (SPA)-based methods. PDE10 catalyses the hydrolysis of the intracellular messenger adenosine […] (cAMP) to the non-cyclic adenosine 5′-monophosphate (AMP). The SPA assay was based upon the selective interaction of the tritiated product with yttrium oxide LEADseeker beads.
The assay buffer contained 25 mM HEPES pH 7.4, 2.5 mM Magnesium Chloride and 0.1% BSA. […] The reaction was terminated by adding 6 μL of 5 mg/mL of yttrium oxide LEADseeker beads. The beads were allowed to settle for 3 hours before plates were read in the LEEDSeaker for 6 minutes. The measured signal ccould be converted to activity relative to an […] control (100%). IC50 values were calculated by using in-house data software and IC50 values were generated by nonlinear regression analysis. (Bristol-Myers Squibb Company, Wallingford, Conn.).

Sequence of PDE10 (Q9Y233 whole entry): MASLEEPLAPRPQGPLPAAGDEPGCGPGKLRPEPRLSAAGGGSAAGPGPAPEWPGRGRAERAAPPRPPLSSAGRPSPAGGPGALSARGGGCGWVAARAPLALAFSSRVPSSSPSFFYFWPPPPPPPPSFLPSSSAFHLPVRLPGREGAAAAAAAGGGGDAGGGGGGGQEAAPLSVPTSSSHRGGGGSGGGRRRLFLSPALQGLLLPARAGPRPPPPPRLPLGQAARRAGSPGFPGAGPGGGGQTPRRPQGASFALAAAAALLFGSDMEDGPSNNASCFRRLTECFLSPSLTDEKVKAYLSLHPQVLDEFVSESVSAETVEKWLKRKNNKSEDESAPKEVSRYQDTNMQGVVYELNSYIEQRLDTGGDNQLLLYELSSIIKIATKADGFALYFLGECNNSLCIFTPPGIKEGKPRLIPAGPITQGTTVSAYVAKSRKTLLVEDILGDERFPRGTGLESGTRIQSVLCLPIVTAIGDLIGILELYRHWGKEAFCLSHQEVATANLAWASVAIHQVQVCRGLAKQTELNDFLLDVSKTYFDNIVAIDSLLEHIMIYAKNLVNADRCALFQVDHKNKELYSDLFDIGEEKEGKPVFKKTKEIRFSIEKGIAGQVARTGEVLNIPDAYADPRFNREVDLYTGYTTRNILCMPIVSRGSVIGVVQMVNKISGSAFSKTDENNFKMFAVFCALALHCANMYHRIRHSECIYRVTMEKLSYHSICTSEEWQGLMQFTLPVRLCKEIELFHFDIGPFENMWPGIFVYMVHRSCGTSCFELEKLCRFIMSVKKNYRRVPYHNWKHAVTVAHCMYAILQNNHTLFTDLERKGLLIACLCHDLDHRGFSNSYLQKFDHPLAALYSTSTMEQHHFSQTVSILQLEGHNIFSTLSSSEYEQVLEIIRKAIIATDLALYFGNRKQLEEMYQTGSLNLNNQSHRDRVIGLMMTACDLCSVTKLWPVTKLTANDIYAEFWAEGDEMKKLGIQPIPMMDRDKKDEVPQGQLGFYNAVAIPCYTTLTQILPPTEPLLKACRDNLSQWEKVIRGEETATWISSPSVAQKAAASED

Compound	IC50 (read-out: IC50) [nM]	IC50 (read-out: Range (IC50)) [nM]
Cc1ncc(C)n2nc(C3CC3c3nc(-c4ccccc4)cn3C)nc12 (racemic) [5,8-Dimethyl-2-(2-(1-methyl-4-phenyl-1H-imidazol-2-yl)cyclopropyl)-[1,2,4]triazolo[1,5-a]pyrazine]	1.79	–
Cc1ncc(C)n2nc(C3CC3c3nc(-c4ccccc4)cn3C)nc12 (single isomer, unassigned) [drawing 16, 5,8-dimethyl-2-(2-(1-methyl-4-phenyl-1H-imidazol-2-yl)cyclopropyl)-[1,2,4]triazolo[1,5-a]pyrazine]	–	0.8 to 5
Cc1ncc(C)n2nc(C3CC3c3nc(-c4ccccc4)cn3C)nc12 (single isomer, unassigned) [drawing 17, 5,8-dimethyl-2-(2-(1-methyl-4-phenyl-1H-imidazol-2-yl)cyclopropyl)-[1,2,4]triazolo[1,5-a]pyrazine]	–	10.1 to 40
CCn1cc(-c2ccccc2)nc1C1CC1c1nc2c(C)ncc(C)n2n1 (stereo not drawn) [2-(2-(1-Ethyl-4-phenyl-1H-imidazol-2-yl)cyclopropyl)-5,8-dimethyl-[1,2,4]triazolo[1,5-a]pyrazine]	–	5.1 to 10
Cc1cc(C)n2nc(C3CC3c3nc(-c4ccccc4)cn3C)nc2n1 (stereo not drawn) [5,7-Dimethyl-2-(2-(1-methyl-4-phenyl-1H-imidazol-2-yl)cyclopropyl)-[1,2,4]-triazolo[1,5-a]pyrimidine]	14.5	–
CCCn1cc(-c2ccccc2)nc1C1CC1c1nc2c(C)ncc(C)n2n1 (stereo not drawn) [5,8-dimethyl-2-(2-(4-phenyl-1-propyl-1H-imidazol-2-yl)cyclopropyl)-[1,2,4]triazolo[1,5-a]pyrazine]	6.65	–
